Measurements: US12590067B2, “Herbicidal cyclohexanedione derivatives” (SYNGENTA CROP PROTECTION AG, priority 2019, dated 2026)

Legend:
Test in all cases: Glasshouse herbicidal test, pre- and post-emergence, percentage damage to the plant
Assay type in all cases: in vivo
Setaria faberi (SETFA) = details: 250 g/h, evaluated after 13 days; for SETFA POST percentage damage caused to the plant (five-point scale): post-emergence; for SETFA PRE percentage damage caused to the plant (five-point scale): pre-emergence
Method: (§1) Seeds of a variety of test species are sown in standard soil in pots (Lolium perenne (LOLPE), Setaria faberi (SETFA), Alopecurus myosuroides (ALOMY), Echinochloa crus-galli (ECHCG), Avena fatua (AVEFA)). After cultivation for one day (pre-emergence) or after 8 days cultivation (post-emergence) under controlled conditions in a glasshouse (at 24/16° C., day/night; 14 hours light; 65% humidity), the plants are sprayed with an aqueous spray solution derived from the formulation of the technical active ingredient in acetone/water (50:50) solution containing 0.5% Tween 20 (polyoxyethelyene sorbitan monolaurate, CAS RN 9005-64-5). Compounds are applied at 250 g/h. The test plants are then grown in a glasshouse under controlled conditions in a glasshouse (at 24/16° C., day/night; 14 hours light; 65% humidity) and watered twice daily. After 13 days for pre and post-emergence, the test is evaluated for the percentage damage caused to the plant. The biological activities are shown in the following table on a five-point scale (5=80-100%; 4=60-79%; 3=40-59%; 2=20-39%; 1=0-19%).

Lolium perenne (LOLPE) = details: 250 g/h, evaluated after 13 days; for LOLPE POST percentage damage caused to the plant (five-point scale): post-emergence; for LOLPE PRE percentage damage caused to the plant (five-point scale): pre-emergence
Method: as §1

Avena fatua (AVEFA) = details: 250 g/h, evaluated after 13 days; for AVEFA POST percentage damage caused to the plant (five-point scale): post-emergence; for AVEFA PRE percentage damage caused to the plant (five-point scale): pre-emergence
Method: as §1

[1] = tested on: Echinochloa crus-galli (ECHCG); details: 250 g/h, evaluated after 13 days; for ECHCG POST percentage damage caused to the plant (five-point scale): post-emergence; for ECHCG PRE percentage damage caused to the plant (five-point scale): pre-emergence
Method: as §1

[2] = tested on: Alopecurus myosuroides (ALOMY); details: 250 g/h, evaluated after 13 days; for ALOMY POST percentage damage caused to the plant (five-point scale): post-emergence; for ALOMY PRE percentage damage caused to the plant (five-point scale): pre-emergence
Method: as §1

CC#Cc1cc(Cl)c(C2C(=O)CC3(CCN(C(C)=O)CC3)CC2=O)c(OC)c1 [Compound A1]
5 (5=80-100%): SETFA POST percentage damage caused to the plant (five-point scale) (Setaria faberi (SETFA)) | SETFA PRE percentage damage caused to the plant (five-point scale) (Setaria faberi (SETFA)) | LOLPE POST percentage damage caused to the plant (five-point scale) (Lolium perenne (LOLPE)) | LOLPE PRE percentage damage caused to the plant (five-point scale) (Lolium perenne (LOLPE)) | AVEFA POST percentage damage caused to the plant (five-point scale) (Avena fatua (AVEFA)) | AVEFA PRE percentage damage caused to the plant (five-point scale) (Avena fatua (AVEFA)) | ECHCG POST percentage damage caused to the plant (five-point scale) [1] | ECHCG PRE percentage damage caused to the plant (five-point scale) [1]

CC#Cc1cc(Cl)c(C2C(=O)CC3(CCN(S(=O)(=O)CC)CC3)CC2=O)c(OC)c1 [Compound A2]
5 (5=80-100%): SETFA POST percentage damage caused to the plant (five-point scale) (Setaria faberi (SETFA)) | SETFA PRE percentage damage caused to the plant (five-point scale) (Setaria faberi (SETFA)) | LOLPE POST percentage damage caused to the plant (five-point scale) (Lolium perenne (LOLPE)) | LOLPE PRE percentage damage caused to the plant (five-point scale) (Lolium perenne (LOLPE)) | AVEFA POST percentage damage caused to the plant (five-point scale) (Avena fatua (AVEFA)) | AVEFA PRE percentage damage caused to the plant (five-point scale) (Avena fatua (AVEFA)) | ECHCG POST percentage damage caused to the plant (five-point scale) [1] | ECHCG PRE percentage damage caused to the plant (five-point scale) [1] | ALOMY POST percentage damage caused to the plant (five-point scale) [2] | ALOMY PRE percentage damage caused to the plant (five-point scale) [2]

CC#Cc1cc(Cl)c(C2C(=O)CC3(CCN(C(=O)c4ccccc4)CC3)CC2=O)c(OC)c1 [Compound A3, 3-benzoyl-9-(2-chloro-6-methoxy-4-prop-1-ynyl-phenyl)-3-azaspiro[5.5]undecane-8,10-dione]
5 (5=80-100%): SETFA POST percentage damage caused to the plant (five-point scale) (Setaria faberi (SETFA)) | SETFA PRE percentage damage caused to the plant (five-point scale) (Setaria faberi (SETFA)) | LOLPE POST percentage damage caused to the plant (five-point scale) (Lolium perenne (LOLPE)) | LOLPE PRE percentage damage caused to the plant (five-point scale) (Lolium perenne (LOLPE)) | AVEFA POST percentage damage caused to the plant (five-point scale) (Avena fatua (AVEFA)) | AVEFA PRE percentage damage caused to the plant (five-point scale) (Avena fatua (AVEFA)) | ECHCG POST percentage damage caused to the plant (five-point scale) [1] | ECHCG PRE percentage damage caused to the plant (five-point scale) [1] | ALOMY POST percentage damage caused to the plant (five-point scale) [2] | ALOMY PRE percentage damage caused to the plant (five-point scale) [2]

CC#Cc1cc(Cl)c(C2C(=O)CC3(CCN(C(=O)c4ccccn4)CC3)CC2=O)c(OC)c1 [Compound A4]
5 (5=80-100%): SETFA POST percentage damage caused to the plant (five-point scale) (Setaria faberi (SETFA)) | SETFA PRE percentage damage caused to the plant (five-point scale) (Setaria faberi (SETFA)) | LOLPE POST percentage damage caused to the plant (five-point scale) (Lolium perenne (LOLPE)) | LOLPE PRE percentage damage caused to the plant (five-point scale) (Lolium perenne (LOLPE)) | AVEFA POST percentage damage caused to the plant (five-point scale) (Avena fatua (AVEFA)) | AVEFA PRE percentage damage caused to the plant (five-point scale) (Avena fatua (AVEFA)) | ECHCG POST percentage damage caused to the plant (five-point scale) [1] | ECHCG PRE percentage damage caused to the plant (five-point scale) [1] | ALOMY POST percentage damage caused to the plant (five-point scale) [2] | ALOMY PRE percentage damage caused to the plant (five-point scale) [2]

CC#Cc1cc(Cl)c(C2C(=O)CC3(CCN(C(=O)COC)CC3)CC2=O)c(OC)c1 [Compound A5]
5 (5=80-100%): SETFA POST percentage damage caused to the plant (five-point scale) (Setaria faberi (SETFA)) | SETFA PRE percentage damage caused to the plant (five-point scale) (Setaria faberi (SETFA)) | LOLPE POST percentage damage caused to the plant (five-point scale) (Lolium perenne (LOLPE)) | LOLPE PRE percentage damage caused to the plant (five-point scale) (Lolium perenne (LOLPE)) | AVEFA POST percentage damage caused to the plant (five-point scale) (Avena fatua (AVEFA)) | AVEFA PRE percentage damage caused to the plant (five-point scale) (Avena fatua (AVEFA)) | ECHCG POST percentage damage caused to the plant (five-point scale) [1] | ECHCG PRE percentage damage caused to the plant (five-point scale) [1] | ALOMY POST percentage damage caused to the plant (five-point scale) [2] | ALOMY PRE percentage damage caused to the plant (five-point scale) [2]

CC#Cc1cc(Cl)c(C2C(=O)CC3(CCN(C(=O)NC(C)(C)C)CC3)CC2=O)c(OC)c1 [Compound A6]
5 (5=80-100%): SETFA POST percentage damage caused to the plant (five-point scale) (Setaria faberi (SETFA)) | SETFA PRE percentage damage caused to the plant (five-point scale) (Setaria faberi (SETFA)) | LOLPE POST percentage damage caused to the plant (five-point scale) (Lolium perenne (LOLPE)) | LOLPE PRE percentage damage caused to the plant (five-point scale) (Lolium perenne (LOLPE)) | AVEFA POST percentage damage caused to the plant (five-point scale) (Avena fatua (AVEFA)) | AVEFA PRE percentage damage caused to the plant (five-point scale) (Avena fatua (AVEFA)) | ECHCG POST percentage damage caused to the plant (five-point scale) [1] | ECHCG PRE percentage damage caused to the plant (five-point scale) [1] | ALOMY POST percentage damage caused to the plant (five-point scale) [2] | ALOMY PRE percentage damage caused to the plant (five-point scale) [2]

CC#Cc1cc(Cl)c(C2C(=O)CC3(CCN(C(=O)NC(=O)C(C)(C)C)CC3)CC2=O)c(OC)c1 [Compound A7]
5 (5=80-100%): SETFA POST percentage damage caused to the plant (five-point scale) (Setaria faberi (SETFA)) | SETFA PRE percentage damage caused to the plant (five-point scale) (Setaria faberi (SETFA)) | LOLPE POST percentage damage caused to the plant (five-point scale) (Lolium perenne (LOLPE)) | LOLPE PRE percentage damage caused to the plant (five-point scale) (Lolium perenne (LOLPE)) | AVEFA POST percentage damage caused to the plant (five-point scale) (Avena fatua (AVEFA)) | AVEFA PRE percentage damage caused to the plant (five-point scale) (Avena fatua (AVEFA)) | ECHCG POST percentage damage caused to the plant (five-point scale) [1] | ECHCG PRE percentage damage caused to the plant (five-point scale) [1] | ALOMY POST percentage damage caused to the plant (five-point scale) [2] | ALOMY PRE percentage damage caused to the plant (five-point scale) [2]

CC#Cc1cc(Cl)c(C2C(=O)CC3(CCN(C(=O)C4CC4)CC3)CC2=O)c(OC)c1 [Compound A8]
5 (5=80-100%): SETFA POST percentage damage caused to the plant (five-point scale) (Setaria faberi (SETFA)) | SETFA PRE percentage damage caused to the plant (five-point scale) (Setaria faberi (SETFA)) | LOLPE POST percentage damage caused to the plant (five-point scale) (Lolium perenne (LOLPE)) | LOLPE PRE percentage damage caused to the plant (five-point scale) (Lolium perenne (LOLPE)) | AVEFA POST percentage damage caused to the plant (five-point scale) (Avena fatua (AVEFA)) | AVEFA PRE percentage damage caused to the plant (five-point scale) (Avena fatua (AVEFA)) | ECHCG POST percentage damage caused to the plant (five-point scale) [1] | ECHCG PRE percentage damage caused to the plant (five-point scale) [1] | ALOMY POST percentage damage caused to the plant (five-point scale) [2] | ALOMY PRE percentage damage caused to the plant (five-point scale) [2]

CC#Cc1cc(Cl)c(C2C(=O)CC3(CCN(C(=O)C(F)F)CC3)CC2=O)c(OC)c1 [Compound A9]
5 (5=80-100%): SETFA POST percentage damage caused to the plant (five-point scale) (Setaria faberi (SETFA)) | SETFA PRE percentage damage caused to the plant (five-point scale) (Setaria faberi (SETFA)) | LOLPE POST percentage damage caused to the plant (five-point scale) (Lolium perenne (LOLPE)) | LOLPE PRE percentage damage caused to the plant (five-point scale) (Lolium perenne (LOLPE)) | AVEFA POST percentage damage caused to the plant (five-point scale) (Avena fatua (AVEFA)) | AVEFA PRE percentage damage caused to the plant (five-point scale) (Avena fatua (AVEFA)) | ECHCG POST percentage damage caused to the plant (five-point scale) [1] | ECHCG PRE percentage damage caused to the plant (five-point scale) [1] | ALOMY POST percentage damage caused to the plant (five-point scale) [2] | ALOMY PRE percentage damage caused to the plant (five-point scale) [2]

CC#Cc1cc(Cl)c(C2C(=O)CC3(CCN(C(=O)C(C)(C)C)CC3)CC2=O)c(OC)c1 [Compound A10]
5 (5=80-100%): SETFA POST percentage damage caused to the plant (five-point scale) (Setaria faberi (SETFA)) | SETFA PRE percentage damage caused to the plant (five-point scale) (Setaria faberi (SETFA)) | LOLPE POST percentage damage caused to the plant (five-point scale) (Lolium perenne (LOLPE)) | LOLPE PRE percentage damage caused to the plant (five-point scale) (Lolium perenne (LOLPE)) | AVEFA POST percentage damage caused to the plant (five-point scale) (Avena fatua (AVEFA)) | AVEFA PRE percentage damage caused to the plant (five-point scale) (Avena fatua (AVEFA)) | ECHCG POST percentage damage caused to the plant (five-point scale) [1] | ECHCG PRE percentage damage caused to the plant (five-point scale) [1] | ALOMY POST percentage damage caused to the plant (five-point scale) [2] | ALOMY PRE percentage damage caused to the plant (five-point scale) [2]
